ChEMBL document CHEMBL1201862, “PubChem BioAssay data set” (2004)
Values belong to the compound of their own block, whether it stands above or below them. Activity calls are given as the source filed them.

Experiments:
[1] = AlphaScreen signal interference compounds, dose response, artefact control for ARNT-TACC3 interaction inhibitor project, biochemical, luminescence, cherry-pick (AID 651705); format: functional;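 also: AlphaScreen bead proximity signal that flags compounds interfering with the detection technology; potency reflects signal decrease which marks the compound as an assay artifact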
Vero = test: Vero cell toxicity, dose response, cytotoxicity control, plate reader, cherry-pick samples (AID 687020); format: functional, cell-based; conditions: Chlorocebus sabaeus
A549 = test: A549 cell toxicity, dose response, cytotoxicity control, plate reader, cherry-pick samples (AID 687028); format: functional, cell-based; conditions: Homo sapiens
BHK-21 = test: BHK-21 cell toxicity, dose response, cytotoxicity control, plate reader, cherry-pick samples (AID 687030); format: functional, cell-based; conditions: Mesocricetus auratus
[2] = ARNT/TACC3 interaction disruptors, potency, confirmation, biochemical, AlphaScreen, cherry-picked samples (AID 651703); format: functional, Homo sapiens;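 also: His-tagged ARNT PAS-B domain paired with GST-TACC3 E629A dimer coactivator fragment; potency of inhibitors that break up the complex and lower AlphaScreen signal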
[3] = biological target: 72 kDa type IV collagenase (Homo sapiens, UniProt P08253); test: Dose Response validation of uHTS RPN11 inhibitor hits using a MMP-2 Fluorescence assay.; format: functional
Prothrombin = Prothrombin (Bos taurus, UniProt P00735); test: thrombin inhibition, dose response, biochemical, fluorescence polarization, uHTS hits (AID 602369); format: functional
[4] = biological target: 26S proteasome non-ATPase regulatory subunit 14 (Homo sapiens, UniProt O00487); test: inhibition of proteasome subunit RPN11 – biochemical, fluorescence polarization, uHTS hits, confirmation (AID 602368); format: functional
[5] = biological target: T1, DNA repair and recombination protein RAD54-like (Homo sapiens, UniProt Q92698); test: inhibitors of human RAD54 branch migration, confirmation, biochemical, fluorescence, cherry-picked samples, dose series (AID 651657); format: functional
T1 sequence (Q92698 whole entry): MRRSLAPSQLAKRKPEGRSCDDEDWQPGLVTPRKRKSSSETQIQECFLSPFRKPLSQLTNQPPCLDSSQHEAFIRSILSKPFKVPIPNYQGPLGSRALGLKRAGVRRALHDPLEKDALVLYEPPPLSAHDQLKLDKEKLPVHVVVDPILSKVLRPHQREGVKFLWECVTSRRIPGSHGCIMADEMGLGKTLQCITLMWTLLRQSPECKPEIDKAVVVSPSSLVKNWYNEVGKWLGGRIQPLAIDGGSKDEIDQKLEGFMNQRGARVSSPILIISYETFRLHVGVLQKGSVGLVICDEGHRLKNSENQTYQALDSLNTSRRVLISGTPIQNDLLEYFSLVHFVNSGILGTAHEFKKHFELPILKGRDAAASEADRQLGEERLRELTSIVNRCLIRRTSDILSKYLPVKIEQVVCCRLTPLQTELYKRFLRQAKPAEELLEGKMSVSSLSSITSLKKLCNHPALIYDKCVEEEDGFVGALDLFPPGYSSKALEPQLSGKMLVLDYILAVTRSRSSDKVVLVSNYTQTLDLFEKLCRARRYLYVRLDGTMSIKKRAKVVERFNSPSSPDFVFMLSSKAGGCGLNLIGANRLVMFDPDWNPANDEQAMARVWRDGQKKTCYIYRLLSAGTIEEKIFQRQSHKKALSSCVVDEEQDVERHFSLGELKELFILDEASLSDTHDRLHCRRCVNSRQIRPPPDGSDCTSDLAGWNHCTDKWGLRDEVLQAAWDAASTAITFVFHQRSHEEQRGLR

[6] = biological target: T2, DNA repair protein RAD52 homolog (Homo sapiens, UniProt P43351); format: functional, biochemical
T2 sequence (P43351 whole entry): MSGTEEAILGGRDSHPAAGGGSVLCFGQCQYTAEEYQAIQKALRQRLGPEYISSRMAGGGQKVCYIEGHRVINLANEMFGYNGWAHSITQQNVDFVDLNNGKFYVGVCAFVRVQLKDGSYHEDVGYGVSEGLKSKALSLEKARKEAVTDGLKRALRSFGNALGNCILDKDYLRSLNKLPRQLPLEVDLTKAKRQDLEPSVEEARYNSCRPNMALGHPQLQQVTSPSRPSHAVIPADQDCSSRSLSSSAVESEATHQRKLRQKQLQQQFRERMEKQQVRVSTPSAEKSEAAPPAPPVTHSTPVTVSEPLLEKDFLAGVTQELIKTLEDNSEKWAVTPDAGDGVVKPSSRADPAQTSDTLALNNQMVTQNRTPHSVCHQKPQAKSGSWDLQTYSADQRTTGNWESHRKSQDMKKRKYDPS

[7] = MDA-MB-231 cell growth inhibition, dose response, cytotoxicity control for RAD54 inhibitor project, CellTiter-Glo luminescence, cherry-pick (AID 651692); format: functional, cell-based
[8] = biological target: T3, Low molecular weight phosphotyrosine protein phosphatase (Homo sapiens, UniProt P24666); format: functional; conditions: read-out: IC50_Mean
T3 sequence (P24666 whole entry): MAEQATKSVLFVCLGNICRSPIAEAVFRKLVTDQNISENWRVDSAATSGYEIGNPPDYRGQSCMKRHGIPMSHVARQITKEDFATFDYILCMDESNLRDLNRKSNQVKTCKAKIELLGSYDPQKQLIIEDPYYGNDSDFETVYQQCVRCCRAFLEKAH

[9] = biological target: Tyrosine-protein phosphatase non-receptor type 11 (Homo sapiens, UniProt Q06124); test: SHP2 phosphatase inhibition, dose response, selectivity assay for STEP inhibitor project, biochemical (AID 602367); format: functional; conditions: read-out: IC50_Mean
[10] = biological target: T3, Low molecular weight phosphotyrosine protein phosphatase; format: functional; conditions: read-out: IC50_Mean; remark: listed apart in the source
[11] = biological target: T4, Tyrosine-protein phosphatase non-receptor type 22 (Homo sapiens, UniProt Q9Y2R2); test: PTPN22 phosphatase inhibition, dose response, selectivity assay for STEP inhibitor project, biochemical (AID 624241); format: functional
T4 sequence (Q9Y2R2 whole entry): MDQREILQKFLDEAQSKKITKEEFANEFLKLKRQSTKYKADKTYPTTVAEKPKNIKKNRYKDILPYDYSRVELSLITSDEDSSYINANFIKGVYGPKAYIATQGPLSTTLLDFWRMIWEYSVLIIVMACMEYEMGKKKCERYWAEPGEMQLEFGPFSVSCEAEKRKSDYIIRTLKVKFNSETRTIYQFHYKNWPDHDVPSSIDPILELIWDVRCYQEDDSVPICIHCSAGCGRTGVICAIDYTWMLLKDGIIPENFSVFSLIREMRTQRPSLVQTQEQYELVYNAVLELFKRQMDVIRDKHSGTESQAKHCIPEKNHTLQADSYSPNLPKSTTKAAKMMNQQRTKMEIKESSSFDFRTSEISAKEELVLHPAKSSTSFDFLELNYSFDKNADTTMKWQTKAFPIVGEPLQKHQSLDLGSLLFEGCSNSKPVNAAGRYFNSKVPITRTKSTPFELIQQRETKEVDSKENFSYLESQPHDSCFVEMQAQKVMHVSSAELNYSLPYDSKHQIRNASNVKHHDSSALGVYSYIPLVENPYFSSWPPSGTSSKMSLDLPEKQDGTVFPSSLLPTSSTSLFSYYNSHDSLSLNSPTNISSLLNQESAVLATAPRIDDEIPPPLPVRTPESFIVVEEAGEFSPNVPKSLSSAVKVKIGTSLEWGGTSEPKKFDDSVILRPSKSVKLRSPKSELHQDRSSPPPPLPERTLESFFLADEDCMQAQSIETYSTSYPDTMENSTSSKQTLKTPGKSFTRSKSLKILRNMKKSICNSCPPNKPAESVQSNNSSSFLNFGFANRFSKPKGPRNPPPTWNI

[12] = biological target: Tyrosine-protein phosphatase non-receptor type 5 (Homo sapiens, UniProt P54829); test: STEP phosphatase inhibitors, confirmation, biochemical, fluorescence intensity, uHTS hits (AID 602372); format: functional; conditions: read-out: IC50_Mean
[13] = biological target: Dual specificity protein phosphatase 3 (Homo sapiens, UniProt P51452); test: VHR phosphatase inhibition, dose response, selectivity assay for STEP inhibitor project, biochemical (AID 602374); format: functional; conditions: read-out: IC50_Mean
[14] = biological target: T4, Tyrosine-protein phosphatase non-receptor type 22; test: LYP phosphatase inhibition for selectivity, dose response, selectivity assay for LMPTP inhibitor project, biochemical, fluorescence, LYP catalytic domain (AID 652006); format: functional; conditions: read-out: IC50_Mean
Protein Wnt-3a = Protein Wnt-3a (Mus musculus, UniProt P27467); test: SAR analysis of small molecule antagonists of Gli-SUFU in a Wnt3a luminescent reporter assay.; format: functional
[15] = T. cruzi intracellular amastigote growth inhibition, dose response, imaging, CA-I/72 strain, bovine embryo skeletal muscle, dry powder (AID 651885); format: functional, cell-based

26S proteasome non-ATPase regulatory subunit 14, sequence (O00487 whole entry): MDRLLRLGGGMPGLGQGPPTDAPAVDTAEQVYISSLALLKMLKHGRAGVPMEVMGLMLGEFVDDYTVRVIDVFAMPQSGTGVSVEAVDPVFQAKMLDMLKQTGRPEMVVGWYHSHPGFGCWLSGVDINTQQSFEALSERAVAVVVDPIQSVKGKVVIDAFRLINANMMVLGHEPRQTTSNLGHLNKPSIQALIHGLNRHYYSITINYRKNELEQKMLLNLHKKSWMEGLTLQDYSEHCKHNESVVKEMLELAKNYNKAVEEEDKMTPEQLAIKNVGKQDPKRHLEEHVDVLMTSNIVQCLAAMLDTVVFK
Protein Wnt-3a, sequence (P27467 whole entry): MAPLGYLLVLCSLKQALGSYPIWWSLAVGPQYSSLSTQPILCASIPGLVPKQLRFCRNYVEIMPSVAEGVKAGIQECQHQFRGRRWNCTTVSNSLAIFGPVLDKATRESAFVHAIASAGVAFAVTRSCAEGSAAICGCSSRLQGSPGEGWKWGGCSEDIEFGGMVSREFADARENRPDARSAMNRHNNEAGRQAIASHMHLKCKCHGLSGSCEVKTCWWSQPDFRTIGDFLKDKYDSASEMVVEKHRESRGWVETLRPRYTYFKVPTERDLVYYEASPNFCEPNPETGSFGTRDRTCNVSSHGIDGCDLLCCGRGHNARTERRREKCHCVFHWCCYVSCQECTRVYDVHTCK
Dual specificity protein phosphatase 3, sequence (P51452 whole entry, the tested form may be a part): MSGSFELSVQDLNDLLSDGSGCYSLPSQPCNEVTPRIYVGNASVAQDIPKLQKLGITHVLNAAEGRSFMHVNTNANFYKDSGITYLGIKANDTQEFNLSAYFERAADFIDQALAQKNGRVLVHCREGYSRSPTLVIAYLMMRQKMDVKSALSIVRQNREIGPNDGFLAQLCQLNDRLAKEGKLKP
Tyrosine-protein phosphatase non-receptor type 5, sequence (P54829 whole entry): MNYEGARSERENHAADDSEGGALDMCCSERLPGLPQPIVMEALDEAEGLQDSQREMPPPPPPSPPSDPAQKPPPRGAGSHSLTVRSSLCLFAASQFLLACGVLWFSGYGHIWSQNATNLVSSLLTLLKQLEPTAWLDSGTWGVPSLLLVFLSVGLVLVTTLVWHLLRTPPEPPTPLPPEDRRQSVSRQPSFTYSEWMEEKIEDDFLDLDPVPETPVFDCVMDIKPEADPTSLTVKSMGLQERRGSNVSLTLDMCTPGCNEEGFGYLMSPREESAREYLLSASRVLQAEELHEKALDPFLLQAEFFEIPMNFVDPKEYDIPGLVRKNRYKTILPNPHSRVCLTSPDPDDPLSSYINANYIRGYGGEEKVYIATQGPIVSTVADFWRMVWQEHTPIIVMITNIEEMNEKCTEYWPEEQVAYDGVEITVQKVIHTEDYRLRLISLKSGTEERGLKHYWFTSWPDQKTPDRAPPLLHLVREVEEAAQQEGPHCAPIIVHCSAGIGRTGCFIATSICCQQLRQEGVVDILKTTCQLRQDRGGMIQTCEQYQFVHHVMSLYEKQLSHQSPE
72 kDa type IV collagenase, sequence (P08253 whole entry): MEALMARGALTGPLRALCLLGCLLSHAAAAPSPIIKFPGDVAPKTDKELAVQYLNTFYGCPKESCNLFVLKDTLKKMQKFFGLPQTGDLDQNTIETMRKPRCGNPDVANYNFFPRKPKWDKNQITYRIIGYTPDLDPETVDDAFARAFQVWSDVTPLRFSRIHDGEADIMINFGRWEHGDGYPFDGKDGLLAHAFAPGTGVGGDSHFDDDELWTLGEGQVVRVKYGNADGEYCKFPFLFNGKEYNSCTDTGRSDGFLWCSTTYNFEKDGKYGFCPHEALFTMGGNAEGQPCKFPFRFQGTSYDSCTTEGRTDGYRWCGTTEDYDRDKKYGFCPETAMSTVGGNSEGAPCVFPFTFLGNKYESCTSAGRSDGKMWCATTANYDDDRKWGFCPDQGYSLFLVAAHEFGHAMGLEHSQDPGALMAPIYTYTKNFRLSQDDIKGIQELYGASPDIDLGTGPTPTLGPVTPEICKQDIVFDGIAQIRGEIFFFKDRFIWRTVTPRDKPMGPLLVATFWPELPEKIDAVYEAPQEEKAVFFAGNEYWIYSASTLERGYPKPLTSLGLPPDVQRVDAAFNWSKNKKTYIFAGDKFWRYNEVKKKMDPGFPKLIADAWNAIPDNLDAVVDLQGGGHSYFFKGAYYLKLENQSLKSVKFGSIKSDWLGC

Compound: O=C(NCCCn1ccnc1)Nc1cccc(Cl)c1
- AC50 [1]: 116 µM (active)

Compound: N#Cc1c(Nc2ccccc2)[n+]([O-])c2ccc(Cl)cc2[n+]1[O-]
- AC50 (Vero): 22.5 µM (active)
- AC50 (A549): 20.7 µM (active)
- AC50 (BHK-21): 38.5 µM (active)

Compound: O=C(COC(=O)c1ccc([N+](=O)[O-])o1)Nc1ccc(F)cc1
- AC50 [2]: 109 µM (active)

Compound: COC(=O)c1c(NC(=O)c2ccc(S(=O)(=O)N3CC(C)OC(C)C3)cc2)sc2c1CCN(C)C2 (stereo not given)
- IC50 [3]: > 100 µM (inactive)
- IC50 (Prothrombin): 37.4 µM (active)
- IC50 [4]: 29.5 µM (active)
- AC50 [5]: 55.4 µM (active)
- AC50 [6]: 11.8 µM (active)
- AC50 [7]: 24.6 µM (active)

- IC50 [8]: 9.2 µM (active)
- IC50 [9]: 2.15 µM (active)
- IC50 [10]: 9.56 µM (active)
- IC50 [11]: 64.9 µM (inactive)
- IC50 [12]: 7.95 µM (active)
- IC50 [13]: 3.4 µM (active)
- IC50 [14]: 18.2 µM (active)
Compound: O=C(N/N=C/c1ccc(Br)s1)c1cccc([N+](=O)[O-])c1

- IC50 (Protein Wnt-3a): > 21.8 µM (inactive)
Compound: CC1CCN(c2cc(NC(=O)c3ccccc3)ncn2)CC1

Compound: CC(C)N1C[C@H](C)[C@@H](CN(C)C(=O)OC(C)(C)C)Oc2c(NC(=O)c3ccccn3)cccc2C1=O
- IC50 [15]: 10.3 µM (inconclusive)
